Data on 27 molecules can be found in ChEMBL document CHEMBL3608264, “Novel antibacterial active quinolone-fluoroquinolone conjugates and 2D-QSAR studies” (2015).

≈ marks a conversion by molar mass, not a printed value.

The MIC is the least concentration at which growth counts as inhibited. Low readings indicate greater potency, high ones weaker potency.

Test [1] concerns Staphylococcus aureus. In words: Antimicrobial activity against Staphylococcus aureus ATCC 25923 incubated for 18 hrs by agar dilution method. The test is classed as functional. As to conditions: ATCC 25923, 18 h. (In general: Agar dilution tests growth on a series of plates holding different concentrations.)
In test [2] the test system is Pseudomonas aeruginosa. Nature of the test: Antimicrobial activity against Pseudomonas aeruginosa ATCC 27853 incubated for 18 hrs by agar dilution method. The test is classed as functional. As to conditions: ATCC 27853, 18 h.
In test [3] the test system is Streptococcus pyogenes. In words: Antimicrobial activity against Streptococcus pyogenes ATCC 19615 incubated for 18 hrs by agar dilution method. Format: functional. The following applies: ATCC 19615, 18 h.
Test [4] deals with Salmonella typhimurium. In words: Antimicrobial activity against Salmonella typhimurium ATCC 19430 incubated for 18 hrs by agar dilution method. The test is classed as functional, Salmonella enterica subsp. enterica serovar Typhimurium. As to conditions: Salmonella enterica, ATCC 19430, 18 h.

`CCn1cc(C(=O)N[C@@H](Cc2ccccc2)C(=O)N2CCN(c3cc4c(cc3F)c(=O)c(C(=O)O)cn4C3CC3)CC2)c(=O)c2ccc(C)nc21`: the minimal inhibitory concentration (MIC) in test [1], in test [2], in test [3] and in test [4] was 1800 µM (≈ 1250 µg/mL) in each case.

As to `CCn1cc(C(=O)N[C@@H](Cc2c[nH]c3ccccc23)C(=O)N2CCN(c3cc4c(cc3F)c(=O)c(C(=O)O)cn4C3CC3)CC2)c(=O)c2ccc(C)nc21`, the minimal inhibitory concentration (MIC) in test [1] came out at 3.3 µM (≈ 2.41 µg/mL); in test [2], 1710 µM (≈ 1250 µg/mL); in test [3], 854 µM (≈ 625 µg/mL); in test [4] it was 427 µM (≈ 312 µg/mL).

For the molecule `CC[C@H](C)[C@H](NC(=O)c1cn(CC)c2nc(C)ccc2c1=O)C(=O)N1CCN(c2cc3c(cc2F)c(=O)c(C(=O)O)cn3C2CC2)CC1`, the minimum inhibitory concentration (MIC) in test [1], in test [2], in test [3] and in test [4] was 1900 µM (≈ 1250 µg/mL) in each case.

On to `CCn1cc(C(=O)O)c(=O)c2cc(F)c(N3CCN(C(=O)CCCNC(=O)c4cn(CC)c5nc(C)ccc5c4=O)CC3)cc21`, for which the minimal inhibitory concentration (MIC) in test [1] came out at 505 µM (≈ 312 µg/mL); in test [2], 505 µM (≈ 312 µg/mL); in test [3], 1010 µM (≈ 625 µg/mL); in test [4] it was 505 µM (≈ 312 µg/mL).

For `CCn1cc(C(=O)O)c(=O)c2ccc(C)nc21` [NALIDIXIC ACID], the minimal inhibitory concentration (MIC) in test [1] stood at 3770 µM (≈ 876 µg/mL); in test [2] it was 14.5 µM (≈ 3.37 µg/mL); in test [3], 3770 µM (≈ 876 µg/mL); in test [4] it was 7.2 µM (≈ 1.67 µg/mL).

As for `CC[C@H](C)[C@H](NC(=O)c1cn(CC)c2cc3c(cc2c1=O)OCO3)C(=O)N1CCN(c2cc3c(cc2F)c(=O)c(C(=O)O)cn3C2CC2)CC1`, the MIC worked out at 454 µM (≈ 313 µg/mL) in test [1], 1820 µM (≈ 1250 µg/mL) in test [2], 1820 µM (≈ 1250 µg/mL) in test [3] and 909 µM (≈ 625 µg/mL) in test [4].

With `CCn1cc(C(=O)NCCCC(=O)N2CCN(c3cc4c(cc3F)c(=O)c(C(=O)O)cn4C3CC3)CC2)c(=O)c2cc3c(cc21)OCO3`, the minimal inhibitory concentration (MIC) was 1890 µM (≈ 1250 µg/mL) in test [1], 1890 µM (≈ 1250 µg/mL) in test [2], 1890 µM (≈ 1250 µg/mL) in test [3] and 59.1 µM (≈ 39 µg/mL) in test [4].

On to `CCn1cc(C(=O)O)c(=O)c2cc(F)c(N3CCN(C(=O)[C@H](Cc4c[nH]c5ccccc45)NC(=O)c4cn(CC)c5cc6c(cc5c4=O)OCO6)CC3)cc21`, for which the MIC in test [1], in test [2], in test [3] and in test [4] was 1670 µM (≈ 1250 µg/mL) throughout.

Consider `CCn1cc(C(=O)O)c(=O)c2cc(F)c(N3CCN(C(=O)[C@H](Cc4c[nH]c5ccccc45)NC(=O)c4cn(CC)c5nc(C)ccc5c4=O)CC3)cc21`, for which the minimum inhibitory concentration (MIC) turned out to be 1740 µM (≈ 1250 µg/mL) in test [1], 1740 µM (≈ 1250 µg/mL) in test [2], 1740 µM (≈ 1250 µg/mL) in test [3] and 868 µM (≈ 625 µg/mL) in test [4].

Regarding `CCn1cc(C(=O)NCCC(=O)N2CCN(c3cc4c(cc3F)c(=O)c(C(=O)O)cn4C3CC3)CC2)c(=O)c2cc3c(cc21)OCO3`, the MIC was found to be 1940 µM (≈ 1250 µg/mL) in test [1], 1940 µM (≈ 1250 µg/mL) in test [2], 1940 µM (≈ 1250 µg/mL) in test [3] and 7.4 µM (≈ 4.78 µg/mL) in test [4].

In the case of `CCn1cc(C(=O)O)c(=O)c2cc3c(cc21)OCO3` [OXOLINIC ACID], the MIC in test [1] was 3910 µM (≈ 1020 µg/mL); in test [2], 15 µM (≈ 3.92 µg/mL); in test [3], 1960 µM (≈ 511 µg/mL); in test [4] it was 7.5 µM (≈ 1.96 µg/mL).

Consider `CCn1cc(C(=O)N[C@@H](Cc2c[nH]c3ccccc23)C(=O)N2CCN(c3cc4c(cc3F)c(=O)c(C(=O)O)cn4C3CC3)CC2)c(=O)c2cc3c(cc21)OCO3`, for which the MIC in test [1] came out at 51.3 µM (≈ 39 µg/mL); in test [2], 411 µM (≈ 313 µg/mL); in test [3] it was 411 µM (≈ 313 µg/mL); in test [4], 25.6 µM (≈ 19.5 µg/mL).

In turn, `CCn1cc(C(=O)NCC(=O)N2CCN(c3cc4c(cc3F)c(=O)c(C(=O)O)cn4C3CC3)CC2)c(=O)c2ccc(C)nc21` had a minimal inhibitory concentration (MIC) in test [4] of 64.7 µM (≈ 39 µg/mL). That is a double-digit micromolar value.

Turning to `CCn1cc(C(=O)O)c(=O)c2cc(F)c(N3CCN(C(=O)[C@H](Cc4ccccc4)NC(=O)c4cn(CC)c5cc6c(cc5c4=O)OCO6)CC3)cc21`, the MIC in test [1], in test [2], in test [3] and in test [4] was 1760 µM (≈ 1250 µg/mL) each time.

`CCn1cc(C(=O)O)c(=O)c2cc(F)c(N3CCNCC3)cc21` [NORFLOXACIN]: the MIC in test [1] is 1350 µM (≈ 430 µg/mL); in test [2] it was 336 µM (≈ 107 µg/mL); in test [3] it was 1350 µM (≈ 430 µg/mL); in test [4], 10.3 µM (≈ 3.29 µg/mL).

Take `O=C(O)c1cn(C2CC2)c2cc(N3CCNCC3)c(F)cc2c1=O` [CIPROFLOXACIN]: the MIC in test [1] turned out to be 74.6 µM (≈ 24.7 µg/mL); in test [2] it was 74.6 µM (≈ 24.7 µg/mL); in test [3] it was 2390 µM (≈ 793 µg/mL); in test [4], 9.2 µM (≈ 3.05 µg/mL).

As for `CCn1cc(C(=O)O)c(=O)c2cc(F)c(N3CCN(C(=O)CNC(=O)c4cn(CC)c5nc(C)ccc5c4=O)CC3)cc21`, the MIC was found to be 33 µM (≈ 19.5 µg/mL) in test [1] and 2120 µM (≈ 1250 µg/mL) in test [4].

Turning to `CCn1cc(C(=O)O)c(=O)c2cc(F)c(N3CCN(C(=O)CCNC(=O)c4cn(CC)c5nc(C)ccc5c4=O)CC3)cc21`, the MIC in test [1], in test [2], in test [3] and in test [4] was 2070 µM (≈ 1250 µg/mL) in each case.

In the case of `CCn1cc(C(=O)N[C@@H](Cc2ccccc2)C(=O)N2CCN(c3cc4c(cc3F)c(=O)c(C(=O)O)cn4C3CC3)CC2)c(=O)c2cc3c(cc21)OCO3`, the MIC amounted to 1730 µM (≈ 1250 µg/mL) in test [1], 1730 µM (≈ 1250 µg/mL) in test [2], 1730 µM (≈ 1250 µg/mL) in test [3] and 433 µM (≈ 313 µg/mL) in test [4].

As to `CCn1cc(C(=O)O)c(=O)c2cc(F)c(N3CCN(C(=O)[C@H](Cc4ccccc4)NC(=O)c4cn(CC)c5nc(C)ccc5c4=O)CC3)cc21`, the MIC in test [1] is 28.6 µM (≈ 19.5 µg/mL); in test [2], 918 µM (≈ 625 µg/mL); in test [3], 459 µM (≈ 313 µg/mL); in test [4], 115 µM (≈ 78.1 µg/mL).

With `CC[C@H](C)[C@H](NC(=O)c1cn(CC)c2cc3c(cc2c1=O)OCO3)C(=O)N1CCN(c2cc3c(cc2F)c(=O)c(C(=O)O)cn3CC)CC1`, the MIC was determined as 1850 µM (≈ 1250 µg/mL) in test [1], 462 µM (≈ 313 µg/mL) in test [2], 1850 µM (≈ 1250 µg/mL) in test [3] and 1850 µM (≈ 1250 µg/mL) in test [4].

In turn, `CCn1cc(C(=O)NCC(=O)N2CCN(c3cc4c(cc3F)c(=O)c(C(=O)O)cn4C3CC3)CC2)c(=O)c2cc3c(cc21)OCO3` displayed a minimal inhibitory concentration (MIC) in test [4] of 7.6 µM (≈ 4.8 µg/mL).

For the molecule `CCn1cc(C(=O)NCCC(=O)N2CCN(c3cc4c(cc3F)c(=O)c(C(=O)O)cn4C3CC3)CC2)c(=O)c2ccc(C)nc21`, the minimum inhibitory concentration (MIC) was found to be 1010 µM (≈ 625 µg/mL) in test [1], 2030 µM (≈ 1250 µg/mL) in test [2], 7.8 µM (≈ 4.81 µg/mL) in test [3] and 15.7 µM (≈ 9.68 µg/mL) in test [4].

On to `CCn1cc(C(=O)O)c(=O)c2cc(F)c(N3CCN(C(=O)CCCNC(=O)c4cn(CC)c5cc6c(cc5c4=O)OCO6)CC3)cc21`, for which the MIC in test [1] was found to be 482 µM (≈ 312 µg/mL); in test [3], 965 µM (≈ 625 µg/mL).

Turning to `CC[C@H](C)[C@H](NC(=O)c1cn(CC)c2nc(C)ccc2c1=O)C(=O)N1CCN(c2cc3c(cc2F)c(=O)c(C(=O)O)cn3CC)CC1`, the minimal inhibitory concentration (MIC) in test [1], in test [2], in test [3] and in test [4] was 1930 µM (≈ 1250 µg/mL) in each case.

Regarding `CCn1cc(C(=O)O)c(=O)c2cc(F)c(N3CCN(C(=O)CCNC(=O)c4cn(CC)c5cc6c(cc5c4=O)OCO6)CC3)cc21`, the minimum inhibitory concentration (MIC) in test [1] is 30.8 µM (≈ 19.5 µg/mL); in test [2], 493 µM (≈ 313 µg/mL); in test [3], 247 µM (≈ 156 µg/mL); in test [4], 61.6 µM (≈ 39 µg/mL).

`CCn1cc(C(=O)O)c(=O)c2cc(F)c(N3CCN(C(=O)CNC(=O)c4cn(CC)c5cc6c(cc5c4=O)OCO6)CC3)cc21`: in test [4], the MIC came out at 2020 µM (≈ 1250 µg/mL).
